Data on 4 molecules can be found in patent US6118050A, “Hydroxyphenylpyruvate dioxygenase gene from arabidopsis and method of screening for inhibitors thereof” (American Cyanamid Company, priority 1997, dated 2000).

One assay relates to Lemna. To be noted: cited from earlier work.
The test system of another assay is albino psdl mutant. The conditions noted are these: transferred to MS2 medium supplemented with OHPP or HGA; cited from earlier work.
A further assay concerns susceptible plants. The conditions noted are these: cited from earlier work.
Assay [1] deals with partially purified HPPD from barnyardgrass (Echinochloa crus-galli L.). To be noted: partially purified HPPD from barnyardgrass (Secor, 1994); cited from earlier work.
A further assay deals with T1, Arabidopsis HPPD (Arabidopsis thaliana, UniProt P93836).
T1 construct: made in house; host or cells: E. coli (pKK233-2, trc promoter); desalted lysate supernatant
T1 sequence (P93836 1-445): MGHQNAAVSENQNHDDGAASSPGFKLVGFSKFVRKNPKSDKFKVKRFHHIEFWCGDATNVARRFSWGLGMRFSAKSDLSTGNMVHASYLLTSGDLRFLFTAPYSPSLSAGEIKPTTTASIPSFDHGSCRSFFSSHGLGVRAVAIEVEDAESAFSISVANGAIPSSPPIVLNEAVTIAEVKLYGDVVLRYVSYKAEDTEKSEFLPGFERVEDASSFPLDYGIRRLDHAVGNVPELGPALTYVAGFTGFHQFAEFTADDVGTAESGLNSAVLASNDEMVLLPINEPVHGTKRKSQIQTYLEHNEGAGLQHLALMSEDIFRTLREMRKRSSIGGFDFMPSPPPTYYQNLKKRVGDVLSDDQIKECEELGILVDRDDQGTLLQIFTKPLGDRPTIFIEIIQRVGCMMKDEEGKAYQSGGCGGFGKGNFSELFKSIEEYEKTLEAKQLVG
The assay can be described thus: HPPD enzymatic activity by capture of released 14CO2 from 14C-hydroxyphenylpyruvate, extract of E. coli transformed with Arabidopsis HPPD gene. In kind it is biochemical. The protocol:
E. coli transformants were treated with 0.1 mg/ml lysozyme in 50 mM potassium phosphate buffer (pH 7.3) at 30° C. for 10 min. Cells were sonicated (3 times, 5 sec each, using a VibraCell sonicator, Sonics and Material, Inc., Danbury, Conn.) and the extract was subjected to centrifugation. The supernatant was desalted on an Econo-Pac 10DG column (Bio-Rad, Richmond, Calif.) that had been equilibrated with 50 mM phosphate buffer (pH 7.3). The desalted HPPD-containing extract was used for the HPPD assay.
HPPD enzymatic activity was determined by the capture of released ^14 CO2 from ^14 C-hydroxyphenylpyruvate (Schulz et al., FEBS Letts. 318:162, 1993; Secor, Plant Physiol. 106:1429, 1994). Reactions were performed in 20 ml scintillation vials, each capped with a serum stopper through which a polypropylene well containing 50 μl of benzethonium hydroxide was suspended. Each 450 μl reaction mixture contained: 50 mM potassium phosphate buffer (pH 7.3); 50 μl of a freshly prepared 1:1 (v/v) mixture of 150 mM reduced glutathione and 3 mM dichlorophenolindophenol; 2500 units of catalase; and bacterial extract (source of HPPD). Enzyme inhibitors were added where indicated. ^14 C-hydroxyphenylpyruvate (50 μl of a 2 mM solution), prepared according to the method of Secor (1994, supra), was added to initiate the reaction, which proceeded at 30° C. for 30 min. The reaction was stopped by adding 100 μl 4 N sulfuric acid and the mixture was incubated for a further 30 min. The radioactivity trapped in benzethonium hydroxide was counted in a scintillation counter.

Assay [2] deals with partially purified enzyme extracted from maize (HPPD). The conditions noted are these: partially purified maize enzyme (Schulz et al., 1993); read-out: calculated IC50; cited from earlier work.
Assay [3] has as its system E. coli transformed with the Arabidopsis HPPD gene. The assay can be described thus: Brown pigment formation in E. coli transformed with the Arabidopsis HPPD gene (absorption at 450 nm). Format: cell-based. The conditions noted are these: medium supplemented with tyrosine (FIG. 2). An excerpt:
B. Production of Brown Pigment and Homogentisic Acid in E. coli
No similar brown pigmentation was associated with untransformed E. coli or with E. coli transformed with the control vector.

Consider `O=C(O)Cc1cc(O)ccc1O` [homogentisic acid], for which the “reversal of the herbicidal effect of sulcotrione” value in the assay with Lemna (Lemna treated with sulcotrione) is “herbicidal effect could be abolished”. In addition, the “greening of albino psdl mutant” value in the assay on albino psdl mutant is listed as “greened”.
A word on the Ki: it is a dissociation constant, usually derived from enzyme kinetics or from competition with a known ligand. For `CS(=O)(=O)c1ccc(C(=O)C2C(=O)CCCC2=O)c(Cl)c1` [sulcotrione, 2-(2-chloro-4-methanesulfonylbenzoyl)-1,3-cyclohexanedione], in the assay with susceptible plants (accompanying bleaching), the “pigment, phytoene and tyrosine changes” value was “loss of carotenoids and chlorophyll with an increase in phytoene and tyrosine”. For the same molecule, the bleaching entry with susceptible plants is “strong bleaching”. Also, in assay [1], the Ki is 9.8 nM. For the same molecule, the type of inhibition entry in assay [1] is “potent competitive inhibitor”. Also, on Arabidopsis HPPD (at more than 1 μM sulcotrione (FIG. 4)), the “inhibition of the HPPD activity” value is “Nearly complete inhibition”. For the same molecule, the IC50 at Arabidopsis HPPD (cell extract of transformed E. coli, pH 7.3, 30° C., 30 min (FIG. 4), read-out: concentration required to cause 50% inhibition of the HPPD activity) was 100 nM; in assay [2], 45 nM. The growth inhibition entry in the assay with Lemna (treatment of Lemna) is “severely inhibited growth”.
For `N[C@@H](Cc1ccc(O)cc1)C(=O)O` [tyrosine], the “formation of the brown pigment” value in assay [3] is reported as “increased”.

B1: Arabidopsis HPPD: 4-hydroxyphenylpyruvate dioxygenase (HPPD) from Arabidopsis thaliana (AtHPPD) SEQ ID No: 1 (protein)
chain: MGHQNAAVSENQNHDDGAASSPGFKLVGFSKFVRKNPKSDKFKVKRFHHIEFWCGDATNVARRFSWGLGMRFSAKSDLSTGNMVHASYLLTSGDLRFLFTAPYSPSLSAGEIKPTTTASIPSFDHGSCRSFFSSHGLGVRAVAIEVEDAESAFSISVANGAIPSSPPIVLNEAVTIAEVKLYGDVVLRYVSYKAEDTEKSEFLPGFERVEDASSFPLDYGIRRLDHAVGNVPELGPALTYVAGFTGFHQFAEFTADDVGTAESGLNSAVLASNDEMVLLPINEPVHGTKRKSQIQTYLEHNEGAGLQHLALMSEDIFRTLREMRKRSSIGGFDFMPSPPPTYYQNLKKRVGDVLSDDQIKECEELGILVDRDDQGTLLQIFTKPLGDDRPTIFIEIIQRVGCMMKDEEGKAYQSGGCGGFGKGNFSELFKSIEEYEKTLEAKQLVG
As to B1, the HPPD activity with Arabidopsis HPPD (extract of E. coli transformed with the Arabidopsis HPPD gene, no inhibitor) is 2.7 μmol/mg protein/hr.
